This note sets out measurements from US20230024842A1, “MUPS TABLET COMPRISING RIBOFLAVIN” (DSM IP Assets B.V., priority 2019, published 2023).

The data set is described as follows: Absorption of the water solution after 15 min (coloration / riboflavin release from coated particles). In kind it is physicochemical. Particulars: amount containing 10 mg riboflavin dissolved in 1000 ml water for 15 min; measured at 545 nm, spectrophotometer (Genesys 20). The protocol:
20 mg of coated powder (containing 10 mg of Riboflavin) was dissolved in 1000 ml water for 15 min. Absorption of the solution was measured at 545 nm using a spectrophotometer (Genesys 20, thermo Scientific). Absorption of the solution was 0.065.
10 mg of riboflavin powder was dissolved in 1000 ml water for 15 min. Absorption of the solution was measured at 545 nm using a spectrophotometer (Genesys 20, thermo Scientific). Absorption of the solution was 0.386.
16.6 mg of coated powder (containing 10 mg of Riboflavin) was dissolved in 1000 ml water for 15 min. Absorption of the solution was measured at 545 nm using a spectrophotometer (Genesys 20, thermo Scientific). Absorption of the solution was 0.087.

In the case of `Cc1cc2nc3c(=O)[nH]c(=O)nc-3n(C[C@H](O)[C@H](O)[C@H](O)CO)c2cc1C` [Comparison Example 2, riboflavin], the “Absorption of the solution” value is on record as 0.386.
